# Measured values as given in ChEMBL document CHEMBL1134867, “Synthesis and initial structure-activity relationships of a novel series of imidazolo[1,2-a]pyrimid-5-ones as potent GnRH receptor antagonists” (Bioorg Med Chem Lett, 2002).
# Tests used:
# [1] = molecular target: T1, Gonadotropin-releasing hormone receptor (Homo sapiens, UniProt P30968); assay: Ability to inhibit [125I-Tyr5,DLeu6,NMeLeu7,Pro9-NEt]GnRH agonist binding to the cloned human Gonadotropin-releasing hormone receptor was evaluated
# T1 sequence (P30968 whole entry): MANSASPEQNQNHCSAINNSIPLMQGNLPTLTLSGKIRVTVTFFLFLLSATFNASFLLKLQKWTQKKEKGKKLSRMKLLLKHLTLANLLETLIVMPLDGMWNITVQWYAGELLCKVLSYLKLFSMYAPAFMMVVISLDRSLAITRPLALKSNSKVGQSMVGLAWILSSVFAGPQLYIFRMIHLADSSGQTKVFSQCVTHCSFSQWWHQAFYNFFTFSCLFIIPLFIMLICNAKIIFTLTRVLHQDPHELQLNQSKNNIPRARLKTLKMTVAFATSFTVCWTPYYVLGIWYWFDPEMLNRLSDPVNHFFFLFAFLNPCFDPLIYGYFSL
# [2] = Oral bioavailability in rat; format: ADME, organism-based; settings: in vivo
# [3] = molecular target: T1, Gonadotropin-releasing hormone receptor; assay: Ability of compound to inhibit [125I-Tyr5,DLeu6,NMeLeu7,Pro9-NEt]GnRH agonist binding to the cloned human Gonadotropin-releasing hormone receptor was evaluated
# [4] = molecular target: T2, Gonadotropin-releasing hormone receptor (Rattus norvegicus, UniProt P30969); assay: Ability of compound to inhibit [125I-Tyr5,DLeu6,NMeLeu7,Pro9-NEt]GnRH agonist binding to the rat Gonadotropin-releasing hormone receptor was evaluated
# T2 sequence (P30969 whole entry): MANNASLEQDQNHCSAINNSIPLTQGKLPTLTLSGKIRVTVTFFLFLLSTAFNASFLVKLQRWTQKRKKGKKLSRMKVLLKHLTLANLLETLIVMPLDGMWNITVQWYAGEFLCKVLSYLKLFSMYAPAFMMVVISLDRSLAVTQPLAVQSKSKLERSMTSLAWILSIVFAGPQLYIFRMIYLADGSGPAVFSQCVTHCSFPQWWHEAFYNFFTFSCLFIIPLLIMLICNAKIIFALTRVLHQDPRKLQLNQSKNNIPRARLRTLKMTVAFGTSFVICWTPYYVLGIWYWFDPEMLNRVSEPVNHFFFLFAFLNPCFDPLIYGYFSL
Compound,Ki [1],further results
CCCC(=O)Nc1ccc(-c2cn3c(=O)c(C(=O)OCC)cn(Cc4ccccc4F)c3n2)cc1,30000 nM,–
CCC(CC)OC(=O)c1cn(Cc2ccccc2F)c2nc(-c3ccc(NC(=O)C(C)C)cc3)c(CN(C)Cc3ccccc3)n2c1=O,41 nM,–
CCCC(=O)Nc1ccc(-c2nc3n(Cc4ccccc4F)cc(C(=O)OC(CC)CC)c(=O)n3c2CN(C)CCc2ccccn2)cc1,7.5 nM,–
CCCC(=O)Nc1ccc(-c2nc3n(Cc4ccccc4F)cc(C(=O)OC(CC)CC)c(=O)n3c2CN(C)CCOC)cc1,36 nM,–
CC[C@H]1OC(=O)[C@H](C)[C@@H](OC(=O)N2C(=O)OC[C@@H]2C)[C@H](C)[C@@H](O[C@@H]2O[C@H](C)C[C@H](N(C)CC3CC3)[C@H]2O)[C@@](C)(OC)C[C@@H](C)C(=O)[C@H](C)[C@H]2N(CCc3ccc(Cl)c(Cl)c3)C(=O)O[C@]12C,–,bioavailability [2]: 15.2%; Ki [3]: 2 nM; Ki [4]: 0.631 nM
CCCC(=O)Nc1ccc(-c2nc3n(Cc4ccccc4F)cc(C(=O)OC(CC)CC)c(=O)n3c2CN(C)Cc2cccnc2)cc1,52 nM,–
CCCC(=O)Nc1ccc(-c2nc3n(Cc4ccccc4F)cc(C(=O)OC(CC)CC)c(=O)n3c2CN(C)CCc2ccccc2)cc1,14 nM,–
CCCC(=O)Nc1ccc(-c2nc3n(Cc4ccccc4F)cc(C(=O)OC(CC)CC)c(=O)n3c2CN2CCc3ccccc3C2)cc1,290 nM,–
CCCC(=O)Nc1ccc(-c2nc3n(Cc4ccccc4F)cc(C(=O)OCC)c(=O)n3c2CN(C)Cc2ccccc2)cc1,80 nM,–
CCOC(=O)c1cn(Cc2ccccc2F)c2nc(-c3ccc(OC)cc3)c(CN(C)Cc3ccccc3)n2c1=O,950 nM,–
CCCC(=O)Nc1ccc(-c2cn3c(=O)c(C(=O)OC(CC)CC)cn(Cc4ccccc4F)c3n2)cc1,28000 nM,–
CCCC(=O)Nc1ccc(-c2nc3n(Cc4ccccc4F)cc(C(=O)OC(CC)CC)c(=O)n3c2CN2CCCC2)cc1,2200 nM,–
CCCC(=O)Nc1ccc(-c2nc3n(Cc4ccccc4F)cc(C(=O)OC(CC)CC)c(=O)n3c2CN(C)CC#N)cc1,300 nM,–
CCOC(=O)c1cn(Cc2ccccc2F)c2nc(-c3ccc(OC)cc3)c(CN(C)CCc3ccccn3)n2c1=O,230 nM,–
CCCC(=O)Nc1ccc(-c2nc3n(Cc4ccccc4F)cc(C(=O)OCC)c(=O)n3c2CN(C)CCc2ccccn2)cc1,12 nM,–
Cc1cc(-c2c(O)nc3cc(Cl)c(C(=O)Nc4ncccn4)cc3c2OCC[C@@H]2CCN2)cc(C)c1C,–,IC50 [3]: 0.44 nM; IC50 [4]: 4 nM
CCCC(=O)Nc1ccc(-c2nc3n(Cc4ccccc4F)cc(C(=O)OC(CC)CC)c(=O)n3c2CN(C)Cc2ccco2)cc1,29 nM,–
